Measured values reported in patent publication US9598423B2 (BRISTOL-MYERS SQUIBB COMPANY, priority 2013, dated 2017).
Read-outs that look alike come from different tables or passages of the source.

How the values were obtained:
CK1δ = CK1δ (Homo sapiens (Human), UniProt P48730); assay: CK1δ kinase assay (Caliper LABCHIP electrophoretic separation of fluoresceinated peptide substrate and product); type: biochemical
Summary of the method: (§1)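 Kinase reactions ran 22 h at room temperature, were stopped with EDTA, and phosphorylated product was separated electrophoretically from unphosphorylated fluoresceinated peptide. Compounds were tested at eleven concentrations from 10 mM DMSO stocks. IC50 by non-linear regression.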

CK1ε = CK1ε (Homo sapiens (Human), UniProt P49674); assay: CK1ε kinase assay (Caliper LABCHIP electrophoretic separation of fluoresceinated peptide substrate and product); type: biochemical; conditions: read-out: CK1ε (IC50)
Summary of the method: as §1

[1] = 200 pM CK1δ, 50 μM ATP, 1.5 μM peptide substrate, 22 hours at room temperature, read-out: CK1δ (IC50)
[2] = 200 pM CK1ε, 50 μM ATP, 1.5 μM peptide substrate, 22 hours at room temperature

CK1ε, sequence (P49674 whole entry): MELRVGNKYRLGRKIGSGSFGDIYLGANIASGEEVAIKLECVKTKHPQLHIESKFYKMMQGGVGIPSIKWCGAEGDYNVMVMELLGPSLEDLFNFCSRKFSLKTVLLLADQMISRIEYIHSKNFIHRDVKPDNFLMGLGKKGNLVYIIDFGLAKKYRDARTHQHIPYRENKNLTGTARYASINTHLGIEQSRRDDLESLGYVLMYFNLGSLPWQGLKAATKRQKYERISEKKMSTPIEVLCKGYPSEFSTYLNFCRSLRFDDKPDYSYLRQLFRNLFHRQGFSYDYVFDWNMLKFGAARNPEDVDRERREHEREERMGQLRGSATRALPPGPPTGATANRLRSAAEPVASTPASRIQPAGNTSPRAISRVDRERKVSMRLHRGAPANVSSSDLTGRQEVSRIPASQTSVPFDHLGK
CK1δ, sequence (P48730 whole entry): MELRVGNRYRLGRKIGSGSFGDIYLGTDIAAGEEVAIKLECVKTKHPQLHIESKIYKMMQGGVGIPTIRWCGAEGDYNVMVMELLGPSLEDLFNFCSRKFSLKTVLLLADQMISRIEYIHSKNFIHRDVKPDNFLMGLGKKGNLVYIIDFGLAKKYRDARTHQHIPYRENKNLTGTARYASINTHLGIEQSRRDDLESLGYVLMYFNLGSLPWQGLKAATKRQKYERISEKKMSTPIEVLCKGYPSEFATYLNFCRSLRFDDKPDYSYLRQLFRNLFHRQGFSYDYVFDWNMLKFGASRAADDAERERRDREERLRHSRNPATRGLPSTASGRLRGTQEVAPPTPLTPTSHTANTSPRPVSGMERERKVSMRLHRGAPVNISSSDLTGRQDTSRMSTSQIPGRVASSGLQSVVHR

| IC50 (CK1δ; [1]) [nM] | IC50 (CK1ε; [2]) [nM] | Compound | IC50 (CK1δ; CK1δ (IC50, nM)) [nM] | IC50 (CK1ε) [nM] |
| --- | --- | --- | --- | --- |
| 0.01 to 10 | 0.01 to 10 | N#Cc1ccc(NC(=O)N2CCn3nc(-c4cc(F)c5cn[nH]c5c4)c(C(N)=O)c3C2)cc1F [Compound 324, N^5-(4-Cyano-3-fluorophenyl)-2-(4-fluoro-1H-indazol-6-yl)-6,7-dihydropyrazolo[1,5-a]pyrazine-3,5(4H)-dicarboxamide] | – | – |
| 0.01 to 10 | 0.01 to 10 | NC(=O)c1c(-c2ccc(F)c(Cl)c2)nn2c1CN(C(=O)Nc1ccc(F)c(F)c1)CC2 [Compound 183, 2-(3-Chloro-4-fluorophenyl)-N^5-(3,4-difluorophenyl)-6,7-dihydropyrazolo[1,5-a] pyrazine-3,5(4H)-dicarboxamide] | – | – |
| 0.01 to 10 | 0.01 to 10 | NC(=O)c1c(-c2cccc(F)c2)nn2c1CN(C(=O)Nc1ccnnc1)CC2 [Compound 82, 2-(3-Fluorophenyl)-N^5-(pyridazin-4-yl)-6,7-dihydropyrazolo[1,5-a]pyrazine-3,5(4H)-dicarboxamide] | – | – |
| 0.01 to 10 | 0.01 to 10 | NC(=O)c1c(-c2cccc(F)c2)nn2c1CN(C(=O)NC13CC4CC(CC(C4)C1)C3)CC2 [Compound 22, N^5-(Adamantan-1-yl)-2-(3-fluorophenyl)-6,7-dihydropyrazolo[1,5-a]pyrazine-3,5(4H)-dicarboxamide] | – | – |
| 0.01 to 10 | 0.01 to 10 | Cc1cc(NC(=O)N2CCn3nc(-c4cccc(F)c4)c(C(N)=O)c3C2)ccc1C#N [Compound A55, N^5-(4-Cyano-3-methylphenyl)-2-(3-fluorophenyl)-6,7-dihydropyrazolo[1,5-a]pyrazine-3,5(4H)-dicarboxamide] | – | – |
| 0.01 to 10 | 0.01 to 10 | NC(=O)c1c(-c2cccc(F)c2)nn2c1CN(C(=O)Nc1cc(F)cc(F)c1)CC2 [Compound 31, N^5-(3,5-Difluorophenyl)-2-(3-fluorophenyl)-6,7-dihydropyrazolo[1,5-a]pyrazine-3,5(4H)-dicarboxamide] | – | – |
| 0.01 to 10 | 0.01 to 10 | NC(=O)c1c(-c2ccc(F)c(Cl)c2)nn2c1CN(C(=O)Nc1ccc(OC(F)(F)F)cc1)CC2 [Compound 181, 2-(3-Chloro-4-fluorophenyl)-N^5-(4-(trifluoromethoxy)phenyl)-6,7-dihydropyrazolo[1,5-a] pyrazine-3,5(4H)-dicarboxamide] | – | – |
| 0.01 to 10 | 0.01 to 10 | CC1Cn2nc(-c3ccc(Cl)c(Cl)c3)c(C(N)=O)c2CN1C(=O)Nc1ccc(C#N)cc1 (single isomer, unassigned) [Compound 334, N^5-(4-Cyanophenyl)-2-(3,4-dichlorophenyl)-6-methyl-6,7-dihydropyrazolo[1,5-a]pyrazine-3,5(4H)-dicarboxamide] | – | – |
| 100 to 2000 | 100 to 2000 | CS(=O)(=O)Nc1cccc(-c2nn3c(c2C(N)=O)CN(C(=O)Nc2ccc(C#N)cc2)CC3)c1 [Compound 274, N^5-(4-Cyanophenyl)-2-(3-(methylsulfonamido)phenyl)-6,7-dihydropyrazolo[1,5-a] pyrazine-3,5(4H)-dicarboxamide] | – | – |
| 0.01 to 10 | 0.01 to 10 | Cn1ncc2c(F)cc(-c3nn4c(c3C(N)=O)CN(C(=O)Nc3ccc(C#N)cc3)CC4)cc21 [Compound 326, N^5-(4-Cyanophenyl)-2-(4-fluoro-1-methyl-1H-indazol-6-yl)-6,7-dihydropyrazolo[1,5-a]pyrazine-3,5(4H)-dicarboxamide] | – | – |
| 0.01 to 10 | 0.01 to 10 | NC(=O)c1c(-c2cccc(F)c2)nn2c1CN(C(=O)Nc1cc(C(F)(F)F)cc(C(F)(F)F)c1)CC2 [Compound 53, N^5-(3,5-Bis(trifluoromethyl)phenyl)-2-(3-fluorophenyl)-6,7-dihydropyrazolo[1,5-a]pyrazine-3,5(4H)-dicarboxamide] | – | – |
| 0.01 to 10 | 0.01 to 10 | CC(C)(C)NC(=O)N1CCn2nc(-c3ccc(Cl)c(Cl)c3)c(C(N)=O)c2C1 [Compound 129, N^5-(tert-Butyl)-2-(3,4-dichlorophenyl)-6,7-dihydropyrazolo[1,5-a]pyrazine-3,5(4H)-dicarboxamide] | – | – |
| 0.01 to 10 | 0.01 to 10 | NC(=O)c1c(-c2cccc(F)c2)nn2c1CN(C(=O)Nc1ccc(Cl)c(Cl)c1)CC2 [Compound 49, N^5-(3,4-Dichlorophenyl)-2-(3-fluorophenyl)-6,7-dihydropyrazolo[1,5-a]pyrazine-3,5(4H)-dicarboxamide] | – | – |
| 0.01 to 10 | 0.01 to 10 | N#Cc1ccc(NC(=O)N2Cc3c(C(N)=O)c(-c4cccc(Cl)c4)nn3C3(CC3)C2)cc1 [Compound A86, 2′-(3-Chlorophenyl)-N^5′-(4-cyanophenyl)-4′H-spiro[cyclopropane-1,7′-pyrazolo[1,5-a]pyrazine]-3′,5′(6′H)-dicarboxamide] | – | – |
| 0.01 to 10 | 0.01 to 10 | NC(=O)c1c(-c2cccc(Cl)c2)nn2c1CN(C(=O)Nc1ccc(N3CCCCC3)cc1)C[C@H]2CF [Compound A10, (S)-2-(3-Chlorophenyl)-7-(fluoromethyl)-N^5-(4-(piperidin-1-yl)phenyl)-6,7-dihydropyrazolo[1,5-a]pyrazine-3,5(4H)-dicarboxamide] | – | – |
| 0.01 to 10 | 0.01 to 10 | Cc1cc(NC(=O)N2CCn3nc(-c4cc(Cl)c5ocnc5c4)c(C(N)=O)c3C2)ccc1C#N [Compound 310, 2-(7-Chlorobenzo[d]oxazol-5-yl)-N^5-(4-cyano-3-methylphenyl)-6,7-dihydropyrazolo[1,5-a]pyrazine-3,5(4H)-dicarboxamide] | – | – |

| Compound | IC50 (CK1δ; [1]) [nM] | IC50 (CK1ε; [2]) [nM] | IC50 (CK1δ; CK1δ (IC50, nM)) [nM] | IC50 (CK1ε) [nM] |
| --- | --- | --- | --- | --- |
| N#Cc1ccc(NC(=O)N2Cc3c(C(N)=O)c(-c4ccc(F)c(Cl)c4)nn3CC23CC3)cc1C(F)(F)F [Compound 345, 2′-(3-Chloro-4-fluorophenyl)-N^5′-(4-cyano-3-(trifluoromethyl)phenyl)-4′H-spiro[cyclopropane-1,6′-pyrazolo[1,5-a]pyrazine]-3′,5′(7′H)-dicarboxamide] | – | 10 to 100 | 10 to 100 | – |
| Cc1cc(F)cc(-c2nn3c(c2C(N)=O)CN(C(=O)Nc2ccc(C#N)c(C(F)(F)F)c2)CC3)c1 [Compound 229, N^5-(4-Cyano-3-(trifluoromethyl)phenyl)-2-(3-fluoro-5-methylphenyl)-6,7-dihydropyrazolo[1,5-a] pyrazine-3,5(4H)-dicarboxamide] | 0.01 to 10 | – | – | 0.01 to 10 |
| N#Cc1ccc(NC(=O)N2CCn3nc(-c4ccc(F)c(Cl)c4)c(C(N)=O)c3C2)cc1Cl [Compound 203, N^5-(3-Chloro-4-cyanophenyl)-2-(3-chloro-4-fluorophenyl)-6,7-dihydropyrazolo[1,5-a]pyrazine-3,5(4H)-dicarboxamide] | 0.01 to 10 | 0.01 to 10 | – | – |
| N#Cc1ccc(NC(=O)N2CCn3nc(-c4cccc(F)c4)c(C(N)=O)c3C2)cc1C(F)(F)F [Compound 38, N^5-(4-Cyano-3-(trifluoromethyl)phenyl)-2-(3-fluorophenyl)-6,7-dihydropyrazolo[1,5-a]pyrazine-3,5(4H)-dicarboxamide] | 0.01 to 10 | 0.01 to 10 | – | – |
| N#Cc1ccc(NC(=O)N2CCn3nc(-c4ccc(Cl)c(Cl)c4)c(C(N)=O)c3C2)cc1C(F)(F)F [Compound 208, N^5-(4-Cyano-3-(trifluoromethyl)phenyl)-2-(3,4-dichlorophenyl)-6,7-dihydropyrazolo[1,5-a] pyrazine-3,5(4H)-dicarboxamide] | 0.01 to 10 | 0.01 to 10 | – | – |
| N#Cc1ccc(NC(=O)N2CCn3nc(-c4cc(F)cc(Cl)c4)c(C(N)=O)c3C2)cc1Cl [Compound 222, N^5-(3-Chloro-4-cyanophenyl)-2-(3-chloro-5-fluorophenyl)-6,7-dihydropyrazolo[1,5-a] pyrazine-3,5(4H)-dicarboxamide] | 0.01 to 10 | 0.01 to 10 | – | – |
